Experimental data taken from patent US20230301948A1, “REDUCTION OF VIRAL INFECTIONS” (PHOXGEN LIMITED, priority 2020, published 2023).
Where two headings read alike, the source gives them in different places. Marks after values point to notes of the source that are not given here.

Key:
cathepsin L protease = molecular target: T1, cathepsin L protease (Homo sapiens, UniProt P07711); type: biochemical
T1 construct: purchased BPS Bioscience

SpikeS1-ACE2 interaction = molecular target: T2, SpikeS1-ACE2 interaction (UniProt P0DTC2+Q9BYF1); assay: biochemical; type: binding, SARS-CoV-2; details: read-out: Percentage inhibition (wrt 100% initial activity)
T2 construct: Rabbit Fc-tagged SARS-Cov-2 Spike S1 RBD; purchased Cayman Chemical Company

T1 sequence (P07711 114-333): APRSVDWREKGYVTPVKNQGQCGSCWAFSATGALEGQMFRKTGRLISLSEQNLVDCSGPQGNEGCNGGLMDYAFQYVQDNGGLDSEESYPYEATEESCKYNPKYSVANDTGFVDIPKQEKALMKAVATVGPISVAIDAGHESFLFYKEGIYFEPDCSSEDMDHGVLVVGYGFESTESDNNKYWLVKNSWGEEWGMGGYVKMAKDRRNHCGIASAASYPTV

| SMILES | Percentage inhibition (cathepsin L protease; 0.0001 µM) | Percentage inhibition (cathepsin L protease; 0.001 µM) | Percentage inhibition (cathepsin L protease; 0.01 µM) | Percentage inhibition (cathepsin L protease; 0.1 µM) | inhibition at 0.01 µg/mL (SpikeS1-ACE2 interaction; 0.01 µg/ml) | inhibition at 0.1 µg/mL (SpikeS1-ACE2 interaction; 0.1 µg/ml) | inhibition at 1 µg/mL (SpikeS1-ACE2 interaction; 1 µg/ml) | inhibition at 10 µg/mL (SpikeS1-ACE2 interaction; 10 µg/ml) | inhibition at 50 µg/mL (SpikeS1-ACE2 interaction; 50 µg/ml) |
| --- | --- | --- | --- | --- | --- | --- | --- | --- | --- |
| CC(C)C[C@H](NC(=O)[C@H]1O[C@@H]1C(=O)O)C(=O)NCCCCN=C(N)N [Composition E-64, E-64] | -15.5% | -1.1% | 17.2 ** % | 56.3 ** % |  |  |  |  |  |
| Cc1cc(O)c2c(c1)C(=O)c1cc(O)cc(O)c1C2=O [Emodin] |  |  |  |  | 35.5% | 38.9% | 44.3% | 48.9% | 62.8% |
